Reference: patent US6469028B1, “Synthesis and use of retinoid compounds having negative hormone and/or anatgonist activities” (Allergan, Inc., priority 1995, dated 2002)
pKd: −log10 of the molar value.

What was measured:
Experiment in all cases: Ligand binding assay
RARα = target: T1, RARα (Homo sapiens, UniProt P10276); set-up: expressed in transfected cells; host or cells: CV1 cells; details: read-out: Kd (nanomolar) RARα
T1 sequence (P10276 1-462): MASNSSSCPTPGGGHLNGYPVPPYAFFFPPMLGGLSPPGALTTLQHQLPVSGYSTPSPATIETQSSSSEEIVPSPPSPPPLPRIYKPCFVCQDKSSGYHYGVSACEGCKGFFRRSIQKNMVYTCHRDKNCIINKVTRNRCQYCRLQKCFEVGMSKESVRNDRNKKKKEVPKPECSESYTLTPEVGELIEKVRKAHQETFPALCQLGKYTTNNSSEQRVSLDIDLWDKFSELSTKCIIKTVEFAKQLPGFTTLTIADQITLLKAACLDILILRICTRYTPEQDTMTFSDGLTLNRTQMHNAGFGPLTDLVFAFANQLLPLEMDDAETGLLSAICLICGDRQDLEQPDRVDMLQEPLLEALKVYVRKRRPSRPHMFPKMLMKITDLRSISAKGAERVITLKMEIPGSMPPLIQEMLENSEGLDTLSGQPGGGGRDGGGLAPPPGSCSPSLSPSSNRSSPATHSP
Excerpt: (§1) A holoreceptor transactivation assay and a ligand binding assay which measure the antagonist/agonist like activity of the compounds of the invention, or their ability to bind to the several retinoid receptor subtypes, respectively, are described in published PCT Application No. WO93/11755 (particularly on pages 30-33 and 37-41) published on Jun. 24, 1993, the specification of which is also incorporated herein by reference. A description of the holoreceptor transactivation assay is also provided below.
(§2) CV1 cells (5,000 cells/well) were transfected with an RAR reporter plasmid MTV-TREp-LUC (50 ng) along with one of the RAR expression vectors (10 ng) in an automated 96-well format by the calcium phosphate procedure of Heyman et al. Cell 68: 397-406. For RXR-α and RXR-γ transactivation assays, an RXR-responsive reporter plasmid CRBPII-tk-LUC (50 ng) along with the appropriate RXR expression vectors (10 ng) was used substantially as described by Heyman et al. above, and Allegretto et al. J. Biol. Chem. 268: 26625-26633. For RXR-β transactivation assays, an RXR-responsive reporter plasmid CPRE-tk-LUC ([…]) along with RXR-β expression vector ([…]) was used as described in above. These reporters contain DRI elements from human CRBPII and certain DRI elements from promotor, respectively (see Mangelsdorf et al. The Retinoids: Biology Chemistry and Medicine, pp. 319-349, Raven Press Ltd., New York and Heyman et al., cited above). A β-galactosidase (50 ng) expression vector was used as an internal control in the transfections to normalize for variations in transfection efficiency. The cells were transfected in triplicate for 6 hours, followed by incubation with retinoids for 36 hours, and the extracts were assayed for luciferase and […] activities. The detailed experimental procedure for holoreceptor transactivations has been described in Heyman et al. above, and Allegretto et al. cited above. The results obtained in this assay are expressed in EC50 numbers, as they are also in the chimeric receptor transactivation assay. The Heyman et al. Cell 68: 397-406, Allegretto et al. J. Biol. Chem. 268: 26625-26633, and Mangelsdorf et al. The Retinoids: Biology, Chemistry, and Medicine, pp. 319-349, Raven Press Ltd., New York, are expressly incorporated herein by reference. The results of ligand binding assay are expressed in Kd numbers. (See Cheng et al. Biochemical Pharmacology 22: 3099-3108, expressly incorporated herein by reference.) […]

RARγ = target: T2, RARγ (Homo sapiens, UniProt P13631); set-up: expressed in transfected cells; host or cells: CV1 cells; details: read-out: Kd (nanomolar) RARγ
T2 sequence (P13631 1-454): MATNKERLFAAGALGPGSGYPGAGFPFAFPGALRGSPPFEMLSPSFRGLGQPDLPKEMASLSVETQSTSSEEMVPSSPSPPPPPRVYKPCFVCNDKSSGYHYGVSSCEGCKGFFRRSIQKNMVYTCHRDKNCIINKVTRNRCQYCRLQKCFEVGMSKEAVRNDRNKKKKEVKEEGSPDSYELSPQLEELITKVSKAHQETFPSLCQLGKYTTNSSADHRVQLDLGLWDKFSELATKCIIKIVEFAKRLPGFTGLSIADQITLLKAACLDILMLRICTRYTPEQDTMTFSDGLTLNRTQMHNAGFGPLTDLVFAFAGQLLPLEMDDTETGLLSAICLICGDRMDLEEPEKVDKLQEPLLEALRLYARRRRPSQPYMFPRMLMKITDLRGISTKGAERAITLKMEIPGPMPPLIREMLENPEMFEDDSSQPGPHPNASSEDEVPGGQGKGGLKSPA
Excerpt: as §1, §2

RARβ = target: T3, RARβ (Homo sapiens, UniProt P10826); details: read-out: Kd (nanomolar) RARβ
T3 sequence (P10826 1-455): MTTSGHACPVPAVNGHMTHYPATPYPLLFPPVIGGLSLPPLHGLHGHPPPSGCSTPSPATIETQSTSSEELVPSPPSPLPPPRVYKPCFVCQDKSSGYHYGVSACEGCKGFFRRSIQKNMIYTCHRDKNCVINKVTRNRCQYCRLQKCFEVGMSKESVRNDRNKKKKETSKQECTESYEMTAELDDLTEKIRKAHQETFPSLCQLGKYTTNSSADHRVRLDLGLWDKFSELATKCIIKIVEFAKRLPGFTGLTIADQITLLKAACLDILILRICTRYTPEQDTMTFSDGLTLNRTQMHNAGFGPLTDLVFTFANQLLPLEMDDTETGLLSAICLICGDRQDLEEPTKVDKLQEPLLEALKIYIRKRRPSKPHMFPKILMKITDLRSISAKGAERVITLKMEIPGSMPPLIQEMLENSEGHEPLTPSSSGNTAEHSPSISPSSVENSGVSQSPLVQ
Excerpt: as §1, §2

Row | pKd (RARα) | pKd (RARγ) | pKd (RARβ) | SMILES
1 | 6.60 | 8.24 | 8.43 | Cc1ccc(C2=CCC(C)(C)c3ccc(N=Nc4ccc(C(=O)O)cc4)cc32)cc1 [Compound 46b, 4-[(5,6-dihydro-5,5-dimethyl-8-(4-methylphenyl)-2-naphthalenyl)azo]-benzoic acid]
2 | 7.22 | 7.25 | 7.20 | CC(/C=C/C=C(\C)c1ccc2c(c1)C(c1ccc(C)cc1)=CCC2(C)C)=C\C(=O)O [Compound 52, (E,E,E)-3-methyl-7-(5,6-dihydro-5,5-dimethyl-8-(4-methylphenyl)-2-naphthalenyl)-2,4,6-octatrienoic acid]
3 | 7.02 | 7.80 | 7.82 | CC(C)(C)c1ccc(C2=CCC(C)(C)c3ccc(C#Cc4ccc(C(=O)O)cc4)cc32)cc1 [Compound 61, 4-[(5,6-Dihydro-5,5-dimethyl-8-(4-(1,1-dimethylethyl)phenyl)-2-naphthalenyl)ethynyl]benzoic acid]
4 | 6.12 | 6.20 | 6.84 | Cc1ccc(C2=CCC(C)(C)c3cc(C(=O)C=Cc4ccc(C(=O)O)cc4)ccc32)cc1 [Compound 101, 4-[3-oxo-3-(7,8-dihydro-5-(4-methylphenyl)-8,8-dimethyl-2-naphthalenyl)-1-propenyl]-benzoic acid]
5 | 6.52 | 6.58 | 6.56 | CC1(C)CC=C(c2ccccc2)c2ccc(C(=O)C=Cc3ccc(C(=O)O)cc3)cc21 [Compound 103, 4-[3-oxo-3-(7,8-dihydro-5-phenyl-8,8-dimethyl-2-naphthalenyl)-1-propenyl]-benzoic acid]

Row | SMILES | pKd (RARα) | pKd (RARγ) | pKd (RARβ)
6 | Cc1ccc(C2=CCC(C)(C)c3ccc(C#Cc4ccc(C(=O)O)cc4)cc32)cc1 [Compound 60, 4-[(5,6-dihydro-5,5-dimethyl-8-(4-methylphenyl)-2-naphthalenyl)ethynyl]benzoic acid] | 8.82 | 8.48 | 8.72
